Data reported in PMC9481570, “A small molecule antagonist of SMN disrupts the interaction between SMN and RNAP II” (Nature Communications, 2022).
Where “and” joins values, the source holds several entries; their conditions need not be identical. Identical values can stand only once.

Assays:
Test in all cases: Affinity-purification and mass spectrometry (AP-MS) chemical proteomics, all proteins;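 for Difference: 200 µM free competitor with 20 µM biotin probe overnight in lysate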
Type in all cases: binding
[1] = biological target: T1, proteins displaced from immobilized biotin-Cmpd 1 pulldowns (U2OS cell lysate) (Homo sapiens, UniProt P09211); settings: GN=GSTP1 (P09211)
T1 construct: endogenous in cells; host or cells: U2OS

[2] = biological target: T2, proteins displaced from immobilized biotin-Cmpd 1 pulldowns (U2OS cell lysate) (Homo sapiens, UniProt P09493); settings: GN=TPM1 (H0YKX5)
T2 construct: endogenous in cells; host or cells: U2OS

[3] = biological target: T3, proteins displaced from immobilized biotin-Cmpd 1 pulldowns (U2OS cell lysate) (Homo sapiens, UniProt P20042); settings: GN=EIF2S2 (P20042)
T3 construct: endogenous in cells; host or cells: U2OS

[4] = biological target: T4, proteins displaced from immobilized biotin-Cmpd 1 pulldowns (U2OS cell lysate) (Homo sapiens, UniProt P22735); settings: GN=TGM1 (P22735)
T4 construct: endogenous in cells; host or cells: U2OS

[5] = biological target: T5, proteins displaced from immobilized biotin-Cmpd 1 pulldowns (U2OS cell lysate) (Homo sapiens, UniProt P35606); settings: GN=COPB2 (P35606)
T5 construct: endogenous in cells; host or cells: U2OS

[6] = biological target: T6, proteins displaced from immobilized biotin-Cmpd 1 pulldowns (U2OS cell lysate) (Homo sapiens, UniProt P57678); settings: GN=GEMIN4 (P57678)
T6 construct: endogenous in cells; host or cells: U2OS

[7] = biological target: T7, proteins displaced from immobilized biotin-Cmpd 1 pulldowns (U2OS cell lysate) (Homo sapiens, UniProt Q6UWP8); settings: GN=SBSN (Q6UWP8)
T7 construct: endogenous in cells; host or cells: U2OS

[8] = biological target: T8, proteins displaced from immobilized biotin-Cmpd 1 pulldowns (U2OS cell lysate) (Homo sapiens, UniProt Q8NBJ5); settings: GN=COLGALT1 (Q8NBJ5)
T8 construct: endogenous in cells; host or cells: U2OS

[9] = biological target: T9, proteins displaced from immobilized biotin-Cmpd 1 pulldowns (U2OS cell lysate) (Homo sapiens, UniProt Q96EY1); settings: GN=DNAJA3 (Q96EY1)
T9 construct: endogenous in cells; host or cells: U2OS

[10] = biological target: T10, proteins displaced from immobilized biotin-Cmpd 1 pulldowns (U2OS cell lysate) (Homo sapiens, UniProt Q9UI42); settings: GN=CPA4 (Q9UI42)
T10 construct: endogenous in cells; host or cells: U2OS
T10 sequence (Q9UI42 114-421): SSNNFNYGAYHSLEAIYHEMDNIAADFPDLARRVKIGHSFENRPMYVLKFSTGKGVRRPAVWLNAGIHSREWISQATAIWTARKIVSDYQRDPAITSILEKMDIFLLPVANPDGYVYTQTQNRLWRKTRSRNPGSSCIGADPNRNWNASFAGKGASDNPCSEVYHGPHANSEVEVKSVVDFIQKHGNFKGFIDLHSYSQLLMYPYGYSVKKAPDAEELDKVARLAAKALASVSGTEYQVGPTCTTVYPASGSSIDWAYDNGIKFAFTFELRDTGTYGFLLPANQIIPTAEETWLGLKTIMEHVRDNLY

T6 sequence (P57678 whole entry): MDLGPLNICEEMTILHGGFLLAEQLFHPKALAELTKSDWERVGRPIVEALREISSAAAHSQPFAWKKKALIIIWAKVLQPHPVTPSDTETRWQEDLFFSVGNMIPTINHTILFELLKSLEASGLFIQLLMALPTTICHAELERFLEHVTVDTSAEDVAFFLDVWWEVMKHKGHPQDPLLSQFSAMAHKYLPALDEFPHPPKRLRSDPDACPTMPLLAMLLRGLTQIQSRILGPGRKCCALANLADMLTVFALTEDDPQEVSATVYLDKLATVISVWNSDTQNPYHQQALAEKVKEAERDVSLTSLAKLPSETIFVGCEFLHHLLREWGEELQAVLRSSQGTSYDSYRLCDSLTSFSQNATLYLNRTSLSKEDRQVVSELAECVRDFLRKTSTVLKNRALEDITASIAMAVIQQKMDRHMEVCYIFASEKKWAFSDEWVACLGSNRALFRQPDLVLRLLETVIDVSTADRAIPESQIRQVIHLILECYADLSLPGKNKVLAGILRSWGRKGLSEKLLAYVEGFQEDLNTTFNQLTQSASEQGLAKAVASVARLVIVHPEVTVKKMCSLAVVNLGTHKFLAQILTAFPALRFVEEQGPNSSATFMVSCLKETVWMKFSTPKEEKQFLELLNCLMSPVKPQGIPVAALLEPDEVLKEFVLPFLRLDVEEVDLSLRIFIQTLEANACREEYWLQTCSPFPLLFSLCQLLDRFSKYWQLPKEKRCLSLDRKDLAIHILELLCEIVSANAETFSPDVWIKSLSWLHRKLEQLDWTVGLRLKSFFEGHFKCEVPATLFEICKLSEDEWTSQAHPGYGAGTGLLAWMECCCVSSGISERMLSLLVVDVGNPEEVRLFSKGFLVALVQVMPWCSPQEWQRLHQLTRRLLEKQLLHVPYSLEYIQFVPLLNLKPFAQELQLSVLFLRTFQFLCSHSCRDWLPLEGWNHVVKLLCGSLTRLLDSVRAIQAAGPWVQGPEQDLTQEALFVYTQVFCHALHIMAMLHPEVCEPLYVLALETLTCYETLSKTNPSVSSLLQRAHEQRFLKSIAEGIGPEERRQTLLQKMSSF
T5 sequence (P35606 whole entry): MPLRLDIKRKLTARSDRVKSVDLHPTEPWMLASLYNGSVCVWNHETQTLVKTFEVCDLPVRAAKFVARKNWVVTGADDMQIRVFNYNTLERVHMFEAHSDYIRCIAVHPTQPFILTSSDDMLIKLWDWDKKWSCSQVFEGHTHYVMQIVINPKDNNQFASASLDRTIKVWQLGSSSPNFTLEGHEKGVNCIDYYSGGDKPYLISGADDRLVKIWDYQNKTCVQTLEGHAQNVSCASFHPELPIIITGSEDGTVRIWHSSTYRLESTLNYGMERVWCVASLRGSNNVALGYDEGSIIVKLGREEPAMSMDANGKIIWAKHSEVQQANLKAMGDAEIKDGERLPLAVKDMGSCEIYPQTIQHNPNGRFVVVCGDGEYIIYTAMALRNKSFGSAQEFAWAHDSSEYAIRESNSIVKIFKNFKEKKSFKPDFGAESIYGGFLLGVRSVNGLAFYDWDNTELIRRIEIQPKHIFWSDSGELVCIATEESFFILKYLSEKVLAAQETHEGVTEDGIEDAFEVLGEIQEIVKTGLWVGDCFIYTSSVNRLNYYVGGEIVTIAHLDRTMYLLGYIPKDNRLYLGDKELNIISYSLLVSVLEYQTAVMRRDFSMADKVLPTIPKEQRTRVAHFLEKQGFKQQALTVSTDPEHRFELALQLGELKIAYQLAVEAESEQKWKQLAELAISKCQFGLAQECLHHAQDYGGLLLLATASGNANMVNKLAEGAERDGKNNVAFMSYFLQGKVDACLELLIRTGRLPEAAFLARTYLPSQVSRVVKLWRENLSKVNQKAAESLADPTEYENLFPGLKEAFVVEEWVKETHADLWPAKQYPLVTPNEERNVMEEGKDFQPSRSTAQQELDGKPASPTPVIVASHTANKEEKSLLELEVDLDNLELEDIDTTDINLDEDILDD
T3 sequence (P20042 whole entry): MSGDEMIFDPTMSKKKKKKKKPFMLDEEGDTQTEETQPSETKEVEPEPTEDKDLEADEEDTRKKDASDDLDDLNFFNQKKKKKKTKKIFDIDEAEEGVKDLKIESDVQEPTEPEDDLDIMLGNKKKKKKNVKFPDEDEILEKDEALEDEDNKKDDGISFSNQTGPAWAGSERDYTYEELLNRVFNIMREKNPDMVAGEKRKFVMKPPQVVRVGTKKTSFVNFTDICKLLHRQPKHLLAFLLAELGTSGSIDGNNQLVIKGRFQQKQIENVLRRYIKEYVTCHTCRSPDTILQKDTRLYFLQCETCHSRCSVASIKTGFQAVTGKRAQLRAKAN
T7 sequence (Q6UWP8 26-590): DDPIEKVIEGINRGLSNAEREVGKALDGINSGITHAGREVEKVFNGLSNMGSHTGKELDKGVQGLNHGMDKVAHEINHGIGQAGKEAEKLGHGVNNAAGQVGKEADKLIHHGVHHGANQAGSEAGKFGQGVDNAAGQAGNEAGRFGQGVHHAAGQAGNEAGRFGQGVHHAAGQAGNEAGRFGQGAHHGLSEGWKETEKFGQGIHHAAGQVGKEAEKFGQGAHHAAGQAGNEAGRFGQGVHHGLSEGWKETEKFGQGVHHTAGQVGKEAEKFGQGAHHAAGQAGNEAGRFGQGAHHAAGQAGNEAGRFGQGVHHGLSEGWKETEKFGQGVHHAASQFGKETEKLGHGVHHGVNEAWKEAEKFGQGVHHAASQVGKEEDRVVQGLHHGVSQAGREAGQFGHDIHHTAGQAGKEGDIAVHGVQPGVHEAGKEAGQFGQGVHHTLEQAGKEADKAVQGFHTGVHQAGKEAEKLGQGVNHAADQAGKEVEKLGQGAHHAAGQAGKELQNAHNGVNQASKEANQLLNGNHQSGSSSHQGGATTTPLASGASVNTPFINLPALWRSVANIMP
T2 sequence (P09493 whole entry): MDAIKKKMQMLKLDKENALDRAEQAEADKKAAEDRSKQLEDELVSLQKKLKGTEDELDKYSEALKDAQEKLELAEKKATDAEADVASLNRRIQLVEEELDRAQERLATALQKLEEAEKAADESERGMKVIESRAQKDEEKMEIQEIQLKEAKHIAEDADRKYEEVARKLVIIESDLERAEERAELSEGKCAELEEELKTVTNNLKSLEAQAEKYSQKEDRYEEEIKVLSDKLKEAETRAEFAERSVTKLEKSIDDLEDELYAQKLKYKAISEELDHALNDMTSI
T4 sequence (P22735 whole entry): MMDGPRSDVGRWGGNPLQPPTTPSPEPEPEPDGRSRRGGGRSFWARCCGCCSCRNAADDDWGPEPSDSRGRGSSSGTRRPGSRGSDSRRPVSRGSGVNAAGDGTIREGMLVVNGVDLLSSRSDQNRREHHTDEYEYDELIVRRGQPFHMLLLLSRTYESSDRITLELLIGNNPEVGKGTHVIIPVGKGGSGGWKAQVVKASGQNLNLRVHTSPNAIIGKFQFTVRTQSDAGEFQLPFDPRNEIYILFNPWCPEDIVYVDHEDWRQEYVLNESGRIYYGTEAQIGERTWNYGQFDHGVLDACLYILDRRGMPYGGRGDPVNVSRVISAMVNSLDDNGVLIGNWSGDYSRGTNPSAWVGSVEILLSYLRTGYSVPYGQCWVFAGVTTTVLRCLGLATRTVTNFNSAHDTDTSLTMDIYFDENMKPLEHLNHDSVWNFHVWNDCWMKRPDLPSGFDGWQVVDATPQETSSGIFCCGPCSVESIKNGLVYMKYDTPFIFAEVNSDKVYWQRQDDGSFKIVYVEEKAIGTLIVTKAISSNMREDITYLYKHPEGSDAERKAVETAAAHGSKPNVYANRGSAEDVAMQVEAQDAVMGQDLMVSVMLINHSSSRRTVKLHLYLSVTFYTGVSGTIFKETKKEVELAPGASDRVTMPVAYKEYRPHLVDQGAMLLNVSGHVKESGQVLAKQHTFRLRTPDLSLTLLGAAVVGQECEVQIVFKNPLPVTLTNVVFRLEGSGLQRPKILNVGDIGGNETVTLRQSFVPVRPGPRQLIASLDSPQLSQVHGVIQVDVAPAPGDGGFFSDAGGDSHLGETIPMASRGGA
T9 sequence (Q96EY1 whole entry): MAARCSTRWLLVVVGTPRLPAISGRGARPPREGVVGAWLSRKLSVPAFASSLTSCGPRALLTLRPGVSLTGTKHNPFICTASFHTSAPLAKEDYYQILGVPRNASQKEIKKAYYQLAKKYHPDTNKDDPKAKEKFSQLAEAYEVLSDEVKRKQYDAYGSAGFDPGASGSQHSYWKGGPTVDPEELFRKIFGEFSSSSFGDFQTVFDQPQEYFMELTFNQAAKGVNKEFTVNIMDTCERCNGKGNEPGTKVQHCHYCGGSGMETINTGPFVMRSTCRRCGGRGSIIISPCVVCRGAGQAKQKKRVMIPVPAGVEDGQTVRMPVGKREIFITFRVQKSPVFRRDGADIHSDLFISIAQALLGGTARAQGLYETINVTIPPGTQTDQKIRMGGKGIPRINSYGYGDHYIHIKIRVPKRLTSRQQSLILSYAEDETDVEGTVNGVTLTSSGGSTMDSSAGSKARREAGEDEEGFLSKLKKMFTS
T1 sequence (P09211 whole entry): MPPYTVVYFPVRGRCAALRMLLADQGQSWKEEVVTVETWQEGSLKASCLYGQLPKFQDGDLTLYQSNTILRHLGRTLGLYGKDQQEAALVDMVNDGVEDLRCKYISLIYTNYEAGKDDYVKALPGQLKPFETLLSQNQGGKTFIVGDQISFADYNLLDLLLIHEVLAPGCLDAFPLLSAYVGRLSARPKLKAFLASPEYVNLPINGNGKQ

**Q.** How did the Difference ([1]; Cmpd minus DMSO, -LOG(P-value) 0.706691) turn out when `Cn1c2c(c(=N)c3c1CCC3)CCC2` [Compound 1, 4-methyl-2,3,4,5,6,7-hexahydrodicyclopenta[b,e]pyridin-8(1H)-imine] was run?
**A.** -2.301

**Q.** And the “iBAQ Cmpd” value ([1]; replicates 1-3)?
**A.** 19.2888 and 14.7277 and 18.6327

**Q.** What about the Difference ([2]; Cmpd minus DMSO, -LOG(P-value) 1.96752) of the same molecule?
**A.** -0.7334

**Q.** And the “iBAQ Cmpd” value ([2]; replicates 1-3)?
**A.** 21.937 and 22.2825 and 22.2241

**Q.** And the Difference ([3]; Cmpd minus DMSO, -LOG(P-value) 0.750637)?
**A.** -2.049

**Q.** What about the “iBAQ Cmpd” value ([3]; replicates 1-3) of the same molecule?
**A.** 14.3581 and 16.9929 and 16.8192

**Q.** What about the Difference ([4]; Cmpd minus DMSO, -LOG(P-value) 1.15166) of the same molecule?
**A.** -2.41

**Q.** And the “iBAQ Cmpd” value ([4]; replicates 1-3)?
**A.** 15.9988 and 17.3288 and 14.7232

**Q.** What about the Difference ([5]; Cmpd minus DMSO, -LOG(P-value) 1.0232) of the same molecule?
**A.** 1.032

**Q.** What about the “iBAQ Cmpd” value ([5]; replicates 1-3) of the same molecule?
**A.** 16.3801 and 15.3301 and 15.6123

**Q.** What about the Difference ([6]; Cmpd minus DMSO, -LOG(P-value) 1.57311) of the same molecule?
**A.** -2.921

**Q.** What about the “iBAQ Cmpd” value ([6]; replicates 1-3) of the same molecule?
**A.** 14.9119 and 15.2101 and 14.5309

**Q.** And the Difference ([7]; Cmpd minus DMSO, -LOG(P-value) 0.819941)?
**A.** -1.912

**Q.** What about the “iBAQ Cmpd” value ([7]; replicates 1-3) of the same molecule?
**A.** 15.6356 and 17.305 and 16.0247

**Q.** And the Difference ([8]; Cmpd minus DMSO, -LOG(P-value) 0.726003)?
**A.** 1.872

**Q.** What about the “iBAQ Cmpd” value ([8]; replicates 1-3) of the same molecule?
**A.** 17.5569 and 16.2606 and 16.9957

**Q.** What about the Difference ([9]; Cmpd minus DMSO, -LOG(P-value) 0.746444) of the same molecule?
**A.** 0.8281

**Q.** And the “iBAQ Cmpd” value ([9]; replicates 1-3)?
**A.** 17.7043 and 17.5809 and 17.383

**Q.** What about the Difference ([10]; Cmpd minus DMSO, -LOG(P-value) 1.07291) of the same molecule?
**A.** -1.567

**Q.** And the “iBAQ Cmpd” value ([10]; replicates 1-3)?
**A.** 17.2042 and 16.9875 and 16.0895
